Reference: US20140275257A1, “N-ACETYL CYSTEINE COMPOSITIONS IN THE TREATMENT OF SYSTEMIC LUPUS ERYTHEMATOSUS” (Foundation for the State University of New York, priority 2013, published 2014)

Tests used:
Format in all cases: in vivo, human
SLE patients [1] = test: British Isles Lupus Assessment Group (BILAG) score in NAC pilot study; conditions: for BILAG: all patients treated with NAC, baseline 26.2
Procedure: The BILAG index is more comprehensive than the SLEDAI, recording clinical disease activity in 8 different organ systems for a total of 101 items. Each item is measured qualitatively by clinical observation (yes/no, improving/same/worse/new) or quantitatively by measuring hematologic and renal lab values. […] Normally, a total score is not calculated. However, it can be converted into a disease activity scale by assigning points to the alphabetical score: A=9, B=3, C=1, D=0, E=0, with a maximum potential score of 72. (Lam, G. K. W. and Petri, M., “Assessment of systemic lupus erthematosus,” Clin. Exp. Rheumatol., 23 (Supp. 39): S120-S132 (2005)). The classical BILAG index was subsequently updated as the BILAG 2004 index. […] Development and initial validation of an updated version of the British Isles Lupus Assessment Group's disease activity index for patients with systemic lupus erythematosus,” Rheumatology, 44: 902-906 (2005). According to the BILAG 2004 index, all features must be attributable to SLE and refer to the last 4 weeks compared with the previous 4 weeks; in some manifestations, it may be difficult to differentiate SLE from other causes as there may not be any specific test and the decision would then lies with the physician's judgement on the balance of probabilities. The term “improvement” is defined as (a) the amount that is sufficient for consideration of reduction in therapy; and (b) that which is present ≧2 weeks of the previous 4 weeks. Scoring for features is indicated as: (0) not present; (1) Improving; (2) Same; (3) Worse; (4) New.
A complete physical examination of the cardiovascular, respiratory, gastrointestinal, musculoskeletal, neurological systems, skin, head, neck, sinuses, nasal and oral cavities were performed at each visit. SLE disease activity was assessed by using the British Isles Lupus Assessment Group (BILAG) (Isenberg, D. A. et al., “BILAG 2004. Development and initial validation of an updated version of the British Isles Lupus Assessment Group's disease activity index for patients with systemic lupus erythematosus,” Rheumatology 44(7): 902-906 (2005)) and SLE Disease Activity Index (SLEDAI) (Bombardier, C. et al., “Derivation of the SLEDAI. A disease activity index for lupus patients,” Arth. Rheum., 35: 630-640 (1992)). The concurrent use and dosage of prednisone and other medications were documented.
(§1) Lupus disease activity was measured by SLEDAI and BILAG and fatigue was evaluated by FAC at baseline (visit 1) as well as monthly during a 3-month intervention (visits 2-4) and after a 1-month washout period (visit 5).
Overall clinical effectiveness of NAC relative to placebo was analyzed with multilevel modeling as implemented in the STATA routine XTMIXED (from StataCorp, College Station, Tex.), with the three nested levels being drug group, subject within drug group and study visit within subject. All models included fixed effects for drug group, study visit and the drug group by study visit interaction along with random intercepts at each design level. […] The reduction in lupus disease activity SLEDAI scores was greater for the NAC than placebo group, as indicated by a significant visit by drug interaction (z=−2.14, p=0.033). The reduction in BILAG scores was also greater for NAC than placebo group. The overall effect was statistically significant as indicated by a significant visit by drug interaction (z=−2.62, p=0.009). Two tailed paired t-test was used to assess the effects of placebo and of each and all NAC doses on clinical indices and biomarkers recorded on visits 2-5 relative to visit 1; p<0.05 was considered significant. Patients and controls were compared with two-tailed unpaired t-test.

[2] = system: anti-double-stranded DNA, C3, and C4; test: Lupus-relevant laboratory tests (anti-double-stranded DNA, C3, C4)
Text: Routine blood tests included complete blood count, liver and kidney function test, urinalysis and lupus-relevant laboratory tests, such as anti-double-stranded DNA, C3, and C4.

GSH in whole blood = test: HPLC assay of GSH in whole blood of SLE patients; conditions: after 1 and 2 months of NAC treatment
Procedure: Reduced glutathione (GSH) was measured by reverse phase ion-exchange HPLC using UV detection at 365 nm, as described in Gergely, P. J. et al., “Mitochondrial hyperpolarization and ATP depletion in patients with systemic lupus erythematosus,” Arth. Rheum., 46: 175-190 (2002); and Hanczko, R. et al., “Prevention of hepatocarcinogenesis and acetaminophen-induced liver failure in transaldolase-deficient mice by N-acetylcysteine,” J. Clin. Invest., 119: 1546-1557 (2009). The disclosures of each of these references are incorporated by reference herein in their entirety.
GSH was measured in whole blood and peripheral blood lymphocytes (PBL) before (visit 1; 0 h) and after the first NAC/placebo dose (visit 1; 3 h and 6 h) and upon each monthly follow-up visit (visits 2-4: between 9-11 am after having taken the last NAC/placebo capsule 8 pm the night before), and after 1 month wash-out (visit 5). HPLC analysis required ˜0.25 ml of whole blood and 5×10^6 PBL which were obtained from a total of 10 ml of blood collected at each time point.

SLE patients [3] = test: Fatigue Assessment Scale (FAS) in NAC pilot study; conditions: for FAS: all NAC doses combined, visit 1 28.5
Text: Fatigue, a nonspecific symptom that is highly prevalent among patients in primary care, is not only an important component of many diseases or disorders, including SLE, but can also play a substantial role in healthy populations. Fatigue is considered the most disabling symptom in a majority of SLE patients. (Krupp, L. B. et al., “A study of fatigue in systemic lupus erythematosus,” J. Rheumatol., 17: 1450-1452 (1990)). The Fatigue Assessment Scale (FAS) is a 10-item unidimensional subjective fatigue scale that measures chronic fatigue. For each statement, one chooses one out of five answer categories varying from “never” to “always: 1=never; 2=sometimes; 3=regularly; 4=often; and 5=always. (Michielsen, H. J. et al., “Psychometric qualities of a brief self-rated fatigue measure: The Fatigue Assessment Scale,” Journal of Psychosomatic Research, 54: 345-352 (2003)).
Fatigue was assessed by using a validated Fatigue Assessment Scale (FAS), a self-questionnaire that provides a subjective measurement of fatigue severity and has shown to have a high degree of internal consistency, validity, and sensitivity to changes in clinical condition, as described in Michielsen, H. J. et al., “Psychometric qualities of a brief self-rated fatigue measure: The Fatigue Assessment Scale,” J. Psychosom. Res., 54(4): 345-352 (2003), the entire content of which is incorporated by reference herein.
as §1

`CC(=O)N[C@@H](CS)C(=O)O` [NAC, N-acetyl-L-cysteine] was tested, and the “effect on SLE disease activity, BILAG” value (SLE patients [1]; NAC dose 1 (1.2 g/day)) was “did not influence”, the “effect on BILAG” value (SLE patients [1]; NAC dose 2 (2.4 g/day) and dose 3 (4.8 g/day), after 1 month (p=0.029) and 3 months (p=0.0009)) was “reduced” and the “effect on BILAG (mixed model analysis)” value (SLE patients [1]; NAC dosing group 3 (4.8 g/day), XTMIXED z=−2.19, p=0.029) was “significant reduction”. For the same molecule, the “reduction in BILAG relative to placebo (mixed model analysis)” value (SLE patients [1]; NAC groups, visit by drug interaction, XTMIXED z=−2.62, p=0.009) was “greater”, the “swollen joint count (BILAG component)” value (SLE patients [1]; after 3-month NAC treatment with dose 3, XTMIXED z=−2.0, p=0.046) was “reduced” and the “swollen joint count (BILAG component)” value (SLE patients [1]; after 3-month NAC treatment, all doses combined, XTMIXED z=−2.2, p=0.028) was “reduced”. For the same molecule, the BILAG (SLE patients [1]; after 1 month (visit 2), p=0.0158) was 22.3, the BILAG (SLE patients [1]; after 2 months (visit 3), p=0.0223) was 22.2 and the C3 ([2]; NAC-treated patients) was “not affected”. For the same molecule, the C4 ([2]; NAC-treated patients) was “not affected”, the Anti-DNA ([2]; all NAC doses considered together, after 1 month, baseline 78.9±45.2 IU/ml, p=0.049) was 19.5±6.0 IU/ml and the “GSH in whole blood” value (GSH in whole blood) was “increased”. For the same molecule, the “effect on SLE disease activity, FAS” value (SLE patients [3]; NAC dose 1 (1.2 g/day)) was “did not influence”, the “effect on FAS” value (SLE patients [3]; NAC dose 2 (2.4 g/day) and dose 3 (4.8 g/day), after 2 months (p=0.002) and 3 months (p=0.004)) was “reduced” and the “effect on FAS relative to placebo (mixed model analysis)” value (SLE patients [3]; NAC dosing group 2, XTMIXED z=−2.08, p=0.038) was “reduction”. For the same molecule, the FAS (SLE patients [3]; visit 3 (2 months), p=0.0006) was 24.1, the FAS (SLE patients [3]; visit 4 (3 months), p=0.005) was 23.9 and the FAS (SLE patients [3]; visit 5 (after 1 month washout), p=0.034) was 24.8.
